Assay results reported in patent US20080051463A1, “ANTHRACENE COMPOUNDS AND THEIR USE FOR TREATING BENIGN AND MALIGNANT TUMOR DISORDERS” (AETERNA ZENTARIS GmbH, priority 2006, published 2008).
≈ marks a conversion by molar mass, not a printed value. Where “and” joins values, the source holds several entries; their conditions need not be identical. Identical values can stand only once.

What was measured:
[1] = tested on: RKOp27 human colon carcinoma cells; assay: Proliferation test, RKOp27 cell system without p27kiP1 expression; assay type: cell-based; conditions: RKOp27 without expression of p27kiP1
Text: (§1) The antiproliferative activity of the compounds 1, 2, 4, 6, 7, 9, 10, 11, 12 and 13 according to the invention was investigated in a proliferation test performed on established tumor cell lines (D. A. Scuderio et al. Cancer Res. 1988, 48: 4827-4833).
(§2) The test used determines the cellular dehydrogenase activity and makes it possible to determine cell viability and determine cell number indirectly.
(§3) The cell lines used are the human cervical carcinoma cell line KB/HeLa (ATCC CCL17), the ovarian adenocarcinoma cell line SKOV-3 (ATCC HTB77), the human glioblastoma cell line SF-268 (NCI-503138) and the lung carcinoma cell line NCI-H460 (NCI-503473). In addition, an RKOp27 cell system was used for investigating the cell cycle-specific effect of the substance (M. Schmidt et al. Oncogene 2000, 19(20): 2423-9).
(§4) RKO is a human colon carcinoma line in which expression of the cell cycle inhibitor p27^kiP1 can be induced using the ecdysone expression system and lead to cell cycle arrest specifically in […].
(§5) By contrast, cell cycle-specific substances, such as, for example, tubulin inhibitors, are only cytotoxic when cells are not arrested and the cell cycle is passed through.

[2] = tested on: lung carcinoma cell line NCI-H460; assay: Proliferation test (cellular dehydrogenase activity), NCI-H460; assay type: cell-based; conditions: Homo sapiens
Text: as §1, §2, §3

[3] = tested on: human glioblastoma cell line SF-268; assay: Proliferation test (cellular dehydrogenase activity), SF-268; assay type: cell-based
Text: as §1, §2, §3

[4] = tested on: RKOp27 human colon carcinoma cells, p27kiP1 induced; assay: Proliferation test, RKOp27 cell system with induced p27kiP1 expression; assay type: cell-based; conditions: RKOp27 with induced expression of p27kiP1, read-out: RKOP27ind EC50
Text: as §1, §2, §3, §4, §5

bovine tubulin = assay: Inhibition of the polymerization of bovine tubulin (in vitro); assay type: biochemical
Text: In this test, tubulin purified by polymerization and depolymerization cycles is used, which is polymerized by addition of GTP and heating.
Table 1 states the %-inhibition values and Table 2 states the EC50 values of polymerization inhibition of tubulin with 30% associated proteins (MAPs).

porcine brain tubulin = tested on: T1, porcine brain tubulin; assay: Inhibition of the polymerization of porcine brain tubulin (turbidimetric); assay type: biochemical; conditions: porcine brain tubulin with about 15% MAPs, GTP, 37° C.
T1 construct: In addition to tubulin, the protein used comprises about 15% of associated proteins (MAPs)
Method: b) In an in vitro test, the compounds 1, 2, 4 and 7 were tested for inhibition of the polymerization of porcine brain tubulin. In this test, tubulin purified by polymerization and depolymerization cycles is used (Shelanski et al. Proc. Natl. Acad. Sci. U.S.A. 1973, 70, 765-768 modified according to Vater et al. Acta Histochem. Suppl. 1986, 33, 123-129), which is polymerized by addition of GTP and heating to 37° C. In addition to tubulin, the protein used comprises about 15% of associated proteins (MAPs). The measurement values were determined turbidimetrically according to Gaskin et al. J. Mol. Biol. 89 (1974) 737-755.
Table 3 states the EC50 value of the polymerization inhibition.

[5] = molecular target: T2, complete recombinant KIF5A (Homo sapiens, UniProt Q12840); assay: Inhibition of KIF5A ATPase activity (end-point assay); assay type: biochemical; conditions: microtubulus-activatable ATPase
T2 construct: Here, use was made of complete recombinant KIF5A
T2 sequence (Q12840 1-1032): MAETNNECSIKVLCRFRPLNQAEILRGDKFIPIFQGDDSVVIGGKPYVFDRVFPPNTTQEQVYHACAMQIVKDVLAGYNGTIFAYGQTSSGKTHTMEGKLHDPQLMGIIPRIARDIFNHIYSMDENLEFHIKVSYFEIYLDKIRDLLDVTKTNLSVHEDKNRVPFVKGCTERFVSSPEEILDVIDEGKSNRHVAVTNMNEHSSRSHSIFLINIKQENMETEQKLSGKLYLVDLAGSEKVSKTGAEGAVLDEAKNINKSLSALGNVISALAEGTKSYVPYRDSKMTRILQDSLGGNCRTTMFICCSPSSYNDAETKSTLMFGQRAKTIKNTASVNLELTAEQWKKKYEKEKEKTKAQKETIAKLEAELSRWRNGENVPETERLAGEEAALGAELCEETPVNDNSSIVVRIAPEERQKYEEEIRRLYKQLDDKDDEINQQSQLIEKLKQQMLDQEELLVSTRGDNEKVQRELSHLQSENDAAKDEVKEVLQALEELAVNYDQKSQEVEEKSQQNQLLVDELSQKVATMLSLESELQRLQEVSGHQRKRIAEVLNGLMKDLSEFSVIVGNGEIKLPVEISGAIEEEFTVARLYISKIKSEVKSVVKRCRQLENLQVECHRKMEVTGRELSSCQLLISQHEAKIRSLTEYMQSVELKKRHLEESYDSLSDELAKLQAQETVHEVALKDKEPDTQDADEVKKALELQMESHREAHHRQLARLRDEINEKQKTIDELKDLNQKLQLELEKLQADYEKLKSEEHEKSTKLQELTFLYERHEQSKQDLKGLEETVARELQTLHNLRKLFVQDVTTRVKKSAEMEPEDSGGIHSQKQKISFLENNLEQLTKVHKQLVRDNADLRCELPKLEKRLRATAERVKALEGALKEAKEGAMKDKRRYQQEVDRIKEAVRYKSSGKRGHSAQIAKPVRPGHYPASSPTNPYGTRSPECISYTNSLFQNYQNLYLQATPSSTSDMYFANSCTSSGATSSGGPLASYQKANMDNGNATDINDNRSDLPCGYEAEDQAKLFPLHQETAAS
Method: In an in vitro test, compound 1 was examined for inhibition of KIF5A ATPase activity. Here, use was made of complete recombinant KIF5A (Niclas J, Navone F, Hom-Booher N, Vale R D Neuron 1994, 12:1059-1072).
The activity of the microtubulus-activatable ATPase was determined by end-point assay. For tubulin isolation and preparation of the microtubuli see citations in Example II) b).
Table 6 states the EC50 value of the ATPase inhibition of KIF5A by compound 1 according to the invention.

EC50 [1]: 0.083 µg/mL (≈ 0.242 µM)
EC50 [2]: 0.146 µg/mL (≈ 0.426 µM)
EC50 [3]: 0.076 µg/mL (≈ 0.222 µM)
EC50 [4]: > 3.16 µg/mL
EC50 of polymerization inhibition of tubulin (bovine tubulin; bovine tubulin with 30% associated proteins (MAPs)): 7.15 µg/mL and 8.02 µg/mL
EC50 of the polymerization inhibition (porcine brain tubulin): 3.0 µg/mL
EC50 [5]: 61.9 µM
SMILES: O=C(C=C1c2ccccc2C(=O)c2ccccc21)c1ccc(O)c(O)c1 [Compound 1, 10-[2-(3,4-dihydroxy-phenyl)-2-oxo-ethylidene]-10H-anthracen-9-one]
Inhibition at 10 μg/ml [%] (bovine tubulin; 10 μg/ml, tubulin with 30% associated proteins (MAPs), repeat values): 98.2% and 83.0% and 86.9% and 79.7%
